Test results published in paper PMC8308508, “Hydralazine and Panobinostat Attenuate Malignant Properties of Prostate Cancer Cell Lines” (Pharmaceuticals, 2021).
Counter-ions that a name gives are not always drawn. Like-named read-outs stand apart in the source and are kept apart here.

Columns and labels:
WPMY-1 = experiment: Cell viability assay (resazurin), dose-response; format: cell-based; conditions: Homo sapiens, WPMY-1, 72 h, WPMY-1, day 3, resazurin
Procedure: (§1) Briefly, PCa cell lines were seeded into 96-well plates at 5000 cells per well and incubated overnight at 37 °C in 5% CO2. Subsequently, cells were treated with a range of concentrations of each epidrug and their respective vehicle (dH2O for hydralazine; dimethyl sulfoxide (DMSO, Sigma-Aldrich, St. Louis, MO, USA) for panobinostat and culture medium for valproic acid) during three consecutive days, exchanging the medium every 24 h. Three experimental replicates of three biological replicates were used for each assay.
(§2) The cell viability was evaluated using resazurin (Canvax Biotech, Córdoba, Spain) at 0 h and 72 h of treatment. The culture medium was removed, and cells were incubated for three hours in the dark at 37 °C and 5% CO2 with 100 μL of 1:10 resazurin solution in culture medium. […] The OD values were corrected using resazurin solution as blank.

DU145 [1] = experiment: Cell viability assay (resazurin), dose-response; format: cell-based; conditions: Homo sapiens, DU-145, 72 h, DU145, day 3, resazurin
Procedure: as §1, §2

LNCaP [2] = experiment: Cell viability assay (resazurin), dose-response; format: cell-based; conditions: Homo sapiens, 72 h, day 3, resazurin
Procedure: as §1, §2

PC-3 [3] = experiment: Cell viability assay (resazurin), dose-response; format: cell-based; conditions: Homo sapiens, 72 h; PC-3, day 3, resazurin
Procedure: as §1, §2

22Rv1 = experiment: Cell viability assay (resazurin), dose-response; format: cell-based; conditions: Homo sapiens, 22Rv1, 72 h, 22Rv1, day 3, resazurin
Procedure: as §1, §2

RWPE-1 [4] = experiment: Cell viability assay (resazurin), dose-response; format: cell-based; conditions: Homo sapiens, RWPE-1, 72 h, RWPE-1, day 3, resazurin
Procedure: as §1, with “assay. The cell viability was evaluated using resazurin ([…] Biotech, Córdoba, Spain) at 0 h and 72 h of treatment. The culture medium was removed, and cells were incubated for three hours in the dark at 37 °C and 5% CO2 with 100 μL of 1:10 resazurin solution in culture medium. […] The OD values were corrected using resazurin solution as blank.” for “assay.”

DU145 [5] = experiment: Invasion transwell assay; format: cell-based, Human; conditions: 24 h after seeding, Hydra 50 µM, Pano 5 nM, differences not statistically significant
Procedure: (§3) Cell invasion and migration were determined using Falcon® Permeable Support for 24-well Plate with 8.0 µm Transparent PET Membrane (Corning, New York, NY, USA) and Nunc® Cell Culture Inserts in 24-well Nunclon Delta surface plate (Sigma-Aldrich, St. Louis, MO, USA), respectively. Briefly, cells were harvested after treatment and were added to the upper chamber in serum-free medium, according to its optimized density (2.5 × 10^4 cells for every cell line except from LNCaP and 22Rv1 with 5 × 10^4 cells). Media containing 10% FBS was added to the lower chamber. After 24 h incubation at 37 °C and 5% CO2, the cells remaining on the upper side of the membrane were removed with cotton swabs, and those on the lower surface of the membrane were fixed in methanol (Supelco, Sigma-Aldrich, St. Louis, MO, USA), washed in PBS 1 × and stained with Crystal Violet (Active motif, Carlsbad, CA, USA). All the inserts were photographed with stereomicroscope Olympus S2X16 using a digital camera Olympus SC180 (scale bar 1 mm) at 12.5 × magnification. Five fields within each insert were selected and photographed at 115 × and further counted using ImageJ software Cell Counter Plugin. The mean of the counted cells was calculated, divided by the area of the microscope viewing field and then multiplied by the entire area of the insert. Three biological replicates were used for each condition.

RWPE-1 [6] = experiment: Alkaline comet assay; format: cell-based, Human; conditions: Pano 10 nM
Description: Three biological replicates were used for each condition.

DU145 [7] = experiment: Proliferation assay (BrdU ELISA); format: cell-based, Human; conditions: day 3, Hydra 50 µM, Pano 5 nM, alone or combined, compared with the vehicle
Procedure: The cell proliferation ELISA BrdU (5-bromo-2′ deoxyuridine) assay (Roche Applied Sciences, Germany) was performed at 72 h of treatment. Cells were plated into 96-well plates at a density of 5000 cells per well, and at 0 h and 72 h of treatment, cells were incubated with 10 µM BrdU labeling solution for 8 h. After removing the culture medium, the cells were fixed with FixDenat solution for 30 min at room temperature. Then, the anti-BrdU-POD antibody (1:100) was added. After three washes with PBS 1 ×, the immune complexes were detected by the subsequent substrate reaction. The reaction product was quantified in a microplate reader (FLUOstar Omega, BMG Labtech, Ortenberg, Germany) at a wavelength of 450 nm with background subtraction at 690 nm. All ODs were normalized for the 0 h time point as well as to the vehicle. Three biological and three experimental replicates were used for each condition.

DU145 [8] = experiment: Synergy assay, 6 × 6 checkerboard, growth inhibition by resazurin, CI by CompuSyn; format: cell-based; conditions: Homo sapiens, DU-145, 72 h, three days
Procedure: Each plate contained 6 × 6 dose matrix blocks with several epidrug concentrations below and above each respective EC50 value. […] The combination index (CI) was calculated using CompuSyn software, where <1 indicates synergism, =1 is an additive effect and >1 indicates antagonism.

DU145 [9] = experiment: Alkaline comet assay; format: cell-based, Human
Procedure: After epidrug exposure, 30,000 cells were harvested by trypsinization, washed in PBS, re-suspended in 0.5% low-melting point agarose (w/v) and immediately placed on a microscope slide previously covered with 1% normal-melting point agarose (w/v). Then, the cells were immersed in lysis solution (2.5 M NaCl, 100 mM Na2EDTA, 10 mM Tris Base and 1% Triton X-100, pH 10) at 4 °C during 2 h in the dark. Afterwards, the slides were incubated in an alkaline electrophoresis buffer (300 mM NaOH, 1 mM Na2EDTA, pH 13) for 40 min at 4 °C to allow DNA unwinding. Single cell gel electrophoresis was performed on a horizontal electrophoresis platform for 30 min at 21 V, 300 mA, 4 °C. Next, slides were incubated in a neutralization buffer (0.4 M Tris-Base, pH 7.5) for 10 min, followed by staining with DAPI. Comet analysis was done using OpenComet v.1.3.1. Global DNA damage (SSB and DSB) evaluation was determined by measuring tail moment (tail % DNA × means of head × tail distance) and representative pictures taken with Olympus IX51 microscope at 200 × magnification (scale bar 50 μm). A sampling of at least 50 comets was included in the analysis. Three biological replicates were used for each condition.

LNCaP [10] = experiment: Colony formation assay; format: cell-based, Human; conditions: 3 days exposure, 10 additional days, Hydra 100 µM, Pano 5 nM
[11] = cited from earlier work
PC-3 [12] = experiment: Colony formation assay; format: cell-based, Human; conditions: 3 days exposure, 7 additional days, Hydra 100 µM, Pano 10 nM
Procedure: (§4) PCa cells were seeded in 6-well culture plates at specific concentrations for each cell line, as detailed in Table S1. After epidrug exposure, cells were incubated at 37 °C and 5% CO2 for 7 days and 10 days (LNCaP). Next, colonies were fixed in methanol (Supelco, Sigma-Aldrich, St. Louis, MO, USA), washed in PBS 1 × and stained with Hemacolor Solution II and III (Sigma-Aldrich, St. Louis, MO, USA). Three biological and three experimental replicates were used for each condition.

DU145 [13] = experiment: Migration transwell assay; format: cell-based, Human; conditions: 24 h, Hydra 50 µM, Pano 5 nM, no significant differences
Procedure: as §3

[14] = Clinical bioavailability and corresponding concentration at maximum clinical dose; format: in vivo; conditions: 200 mg/day
DU145 [15] = conditions: 3 days exposure, 7 additional days, Hydra 50 µM, Pano 5 nM
Procedure: as §4

PC-3 [16] = conditions: 24 h after seeding, Hydra 100 µM, Pano 10 nM, differences not statistically significant
Procedure: as §3

| EC50 (DU145 [1]) | EC50 (LNCaP [2]) | EC50 (PC-3 [3]) | EC50 (22Rv1) | SMILES | EC50 (WPMY-1) | cell invasion (transwell) (DU145 [5]) | cell proliferation (BrdU incorporation) (DU145 [7]) | further results |
| --- | --- | --- | --- | --- | --- | --- | --- | --- |
| 2000 to 3000 µM | 2000 to 3000 µM | 8540 µM | 2000 to 3000 µM | CCCC(CCC)C(=O)O [Valproic acid] | 4460 µM | – | – | EC50 (RWPE-1 [4]): 8970 µM |
| 0.00697 µM | 0.0247 µM | 0.0289 µM | 0.014 µM | Cc1[nH]c2ccccc2c1CCNCc1ccc(/C=C/C(=O)NO)cc1 [Panobinostat] | 0.0241 µM | but not panobinostat, also reduced invasion | but not panobinostat, led to considerable proliferation inhibition | tail moment (comet assay) (RWPE-1 [6]): significantly increased; inhibition at 0.005 µM (DU145 [8]; panobinostat alone at the selected concentration (5 nM, Table 1)): 48.9%; DNA damage (tail moment, comet assay) (DU145 [9]; DU145, Hydra 50 µM, Pano 5 nM, alone or combined): increased DNA damage; colony formation (LNCaP [10]): showed a higher impact; bioavailability [11]: 21.4%; colony formation (PC-3 [12]): showed a higher impact |

| SMILES | EC50 (DU145 [1]) | EC50 (LNCaP [2]) | EC50 (PC-3 [3]) | EC50 (22Rv1) | EC50 (WPMY-1) | cell invasion (transwell) (DU145 [5]) | cell proliferation (BrdU incorporation) (DU145 [7]) | further results |
| --- | --- | --- | --- | --- | --- | --- | --- | --- |
| NNc1nncc2ccccc12 [Hydralazine, Hydralazine hydrochloride] | 50 µM | 87.5 µM | 143 µM | 73.1 µM | – | reduced invasion | considerable proliferation inhibition | cell migration (transwell) (DU145 [13]): reduced cell migration; inhibition at 50 µM (DU145 [8]; hydralazine alone at the selected concentration (50 µM, Table 1)): 42.8%; concentration corresponding to the maximum clinically recommended dose ([14]; bioavailability 16%, fast acetylators): ~0.2 M; concentration corresponding to the maximum clinically recommended dose ([14]; bioavailability 35%, slow acetylators): ~0.44 M; colony formation (clonogenic capacity) (DU145 [15]): almost no colonies were apparent; DNA damage (tail moment, comet assay) (DU145 [9]): increased DNA damage; cell invasion (transwell) (PC-3 [16]): two times higher than that of panobinostat; bioavailability ([11]; fast acetylators): 16%; bioavailability ([11]; slow acetylators): 35% |
